Data taken from patent US7183260B2, “C-terminal modified oxamyl dipeptides as inhibitors of the ICE/ced-3 family of cysteine proteases” (Idun Pharmaceuticals, Inc., priority 1998, dated 2007).
Each block holds one compound with its values, some of them ahead of it.

Key:
Format in all cases: biochemical
Settings in all cases: continuous assay 60 min, reaction initiated by adding enzyme to substrate-inhibitor mixture
CPP32 = target: T1, CPP32 (Homo sapiens, UniProt P42574); test: Dissociation constant Ki and irreversible rate constant k3 for irreversible inhibitors (CPP32)
T1 sequence (P42574 29-175 limits assumed): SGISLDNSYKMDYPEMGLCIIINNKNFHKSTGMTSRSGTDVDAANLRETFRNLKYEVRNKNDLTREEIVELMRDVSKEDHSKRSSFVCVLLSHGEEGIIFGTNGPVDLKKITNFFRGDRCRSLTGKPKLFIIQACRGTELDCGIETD
T1 sequence (P42574 176-277 limits assumed): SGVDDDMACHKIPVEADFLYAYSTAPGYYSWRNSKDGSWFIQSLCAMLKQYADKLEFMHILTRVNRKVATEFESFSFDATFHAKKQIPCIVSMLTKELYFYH

MCH-5 = MCH-5 (Homo sapiens, UniProt Q14790); test: Dissociation constant Ki and irreversible rate constant k3 for irreversible inhibitors (Mch5)
Sequence of MCH-5 (Q14790 217-374 limits assumed, species assumed): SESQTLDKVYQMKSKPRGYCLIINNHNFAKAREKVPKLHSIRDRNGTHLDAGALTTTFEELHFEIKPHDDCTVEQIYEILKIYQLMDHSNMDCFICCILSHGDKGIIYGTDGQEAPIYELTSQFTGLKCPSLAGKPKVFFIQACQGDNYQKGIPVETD
Sequence of MCH-5 (Q14790 385-479 limits assumed, species assumed): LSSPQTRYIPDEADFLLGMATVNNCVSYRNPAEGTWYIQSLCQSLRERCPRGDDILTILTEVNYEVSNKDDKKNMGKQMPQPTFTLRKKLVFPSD

mICE = target: T2, mICE (Mus musculus, UniProt P29452); test: Dissociation constant Ki and irreversible rate constant k3 for irreversible inhibitors (ICE)
T2 sequence (P29452 123-296 limits assumed): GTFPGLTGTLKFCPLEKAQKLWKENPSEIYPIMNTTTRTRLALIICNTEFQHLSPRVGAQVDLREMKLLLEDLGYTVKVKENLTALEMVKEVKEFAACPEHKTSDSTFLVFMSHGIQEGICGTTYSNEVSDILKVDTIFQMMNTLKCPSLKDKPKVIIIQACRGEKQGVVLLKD
T2 sequence (P29452 315-402 limits assumed): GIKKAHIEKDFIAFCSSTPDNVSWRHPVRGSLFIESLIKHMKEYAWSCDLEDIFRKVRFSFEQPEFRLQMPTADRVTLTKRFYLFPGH

MCH-2 = target: T3, MCH-2 (Homo sapiens, UniProt P55212); test: Dissociation constant Ki and irreversible rate constant k3 for irreversible inhibitors (Mch2)
T3 sequence (P55212 24-179 limits assumed): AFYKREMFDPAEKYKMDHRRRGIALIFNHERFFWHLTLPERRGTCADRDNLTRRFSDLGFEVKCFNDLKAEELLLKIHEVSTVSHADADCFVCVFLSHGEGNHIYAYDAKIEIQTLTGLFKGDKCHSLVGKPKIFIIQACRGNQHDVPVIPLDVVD
T3 sequence (P55212 194-293 limits assumed): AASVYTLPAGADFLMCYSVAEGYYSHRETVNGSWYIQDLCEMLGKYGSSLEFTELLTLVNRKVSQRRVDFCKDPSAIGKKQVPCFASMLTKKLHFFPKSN

Compound: CC(C)[C@H](NC(=O)C(=O)Nc1ccccc1I)C(=O)N[C@@H](CC(=O)O)C(=O)COc1c(F)c(F)cc(F)c1F [Example 107]
- CPP32 k3/Ki (CPP32): 42,300 moles^−1 seconds^−1
- Ki (CPP32): 510 nM
- Ki (MCH-5): 4 nM
- MCH-5 k3/Ki (MCH-5): 1,026,000 moles^−1 seconds^−1
- Ki (mICE): 7 nM
- mICE k3/Ki (mICE): 1,260,000 moles^−1 seconds^−1
- Ki (MCH-2): 20 nM
- MCH-2 k3/Ki (MCH-2): 137,000 moles^−1 seconds^−1

Compound: C[C@H](NC(=O)C(=O)Nc1cc(C(C)(C)C)ccc1C(C)(C)C)C(=O)N[C@@H](CC(=O)O)C(=O)COP(=O)(c1ccccc1)c1ccccc1 [Example 59]
- CPP32 k3/Ki (CPP32): 104,000 moles^−1 seconds^−1
- Ki (CPP32): 71 nM
- Ki (MCH-5): 5.5 nM
- MCH-5 k3/Ki (MCH-5): 1,340,000 moles^−1 seconds^−1
- Ki (mICE): 45 nM
- mICE k3/Ki (mICE): 211,000 moles^−1 seconds^−1
- Ki (MCH-2): 15 nM
- MCH-2 k3/Ki (MCH-2): 308,000 moles^−1 seconds^−1

Compound: CC(C)[C@H](NC(=O)C(=O)Nc1ccccc1Br)C(=O)N[C@@H](CC(=O)O)C(=O)COc1c(F)c(F)cc(F)c1F [Example 106]
- CPP32 k3/Ki (CPP32): 276,000 moles^−1 seconds^−1
- Ki (CPP32): 63 nM
- Ki (MCH-5): 3.4 nM
- MCH-5 k3/Ki (MCH-5): 1,305,000 moles^−1 seconds^−1
- Ki (mICE): 9 nM
- mICE k3/Ki (mICE): 1,080,000 moles^−1 seconds^−1
- Ki (MCH-2): 19 nM
- MCH-2 k3/Ki (MCH-2): 230,000 moles^−1 seconds^−1

Compound: C[C@H](NC(=O)C(=O)Nc1ccccc1C(C)(C)C)C(=O)N[C@@H](CC(=O)O)C(=O)COc1ccccc1F [Example 31]
- CPP32 k3/Ki (CPP32): 67,700 moles^−1 seconds^−1
- Ki (CPP32): 60 nM
- Ki (MCH-5): 45 nM
- MCH-5 k3/Ki (MCH-5): 119,000 moles^−1 seconds^−1
- Ki (mICE): 31 nM
- mICE k3/Ki (mICE): 442,000 moles^−1 seconds^−1
- Ki (MCH-2): 71 nM
- MCH-2 k3/Ki (MCH-2): 54,900 moles^−1 seconds^−1

Compound: CC(C)[C@H](NC(=O)C(=O)Nc1ccccc1Cl)C(=O)N[C@@H](CC(=O)O)C(=O)COc1c(F)c(F)cc(F)c1F [Example 105]
- CPP32 k3/Ki (CPP32): 96,300 moles^−1 seconds^−1
- Ki (CPP32): 122 nM
- Ki (MCH-5): 52 nM
- MCH-5 k3/Ki (MCH-5): 234,000 moles^−1 seconds^−1
- Ki (mICE): 8.4 nM
- mICE k3/Ki (mICE): 1,540,000 moles^−1 seconds^−1
- Ki (MCH-2): 26 nM
- MCH-2 k3/Ki (MCH-2): 161,000 moles^−1 seconds^−1

Compound: COc1ccccc1NC(=O)C(=O)N[C@H](C(=O)N[C@@H](CC(=O)O)C(=O)COc1c(F)c(F)cc(F)c1F)C(C)C [Example 95]
- CPP32 k3/Ki (CPP32): 10,800 moles^−1 seconds^−1
- Ki (CPP32): 1090 nM
- Ki (MCH-5): 3 nM
- MCH-5 k3/Ki (MCH-5): 2,680,000 moles^−1 seconds^−1
- Ki (mICE): 6 nM
- mICE k3/Ki (mICE): 2,068,000 moles^−1 seconds^−1
- Ki (MCH-2): 88 nM
- MCH-2 k3/Ki (MCH-2): 61,500 moles^−1 seconds^−1

Compound: CC(C)[C@H](NC(=O)C(=O)Nc1nc2ccccc2[nH]1)C(=O)N[C@@H](CC(=O)O)C(=O)COc1c(F)c(F)cc(F)c1F [Example 88]
- CPP32 k3/Ki (CPP32): 3,130 moles^−1 seconds^−1
- Ki (CPP32): 3130 nM
- Ki (MCH-5): 128 nM
- MCH-5 k3/Ki (MCH-5): 20,800 moles^−1 seconds^−1
- Ki (mICE): 359 nM
- mICE k3/Ki (mICE): 27,400 moles^−1 seconds^−1
- Ki (MCH-2): 1430 nM
- MCH-2 k3/Ki (MCH-2): 1,840 moles^−1 seconds^−1

Compound: C[C@H](NC(=O)C(=O)NCc1cccc2ccccc12)C(=O)N[C@@H](CC(=O)O)C(=O)COc1c(F)c(F)cc(F)c1F [Example 33]
- CPP32 k3/Ki (CPP32): 158,000 moles^−1 seconds^−1
- Ki (CPP32): 61 nM
- Ki (MCH-5): 9.7 nM
- MCH-5 k3/Ki (MCH-5): 1,260,000 moles^−1 seconds^−1
- Ki (mICE): 5.6 nM
- mICE k3/Ki (mICE): 2,590,000 moles^−1 seconds^−1
- Ki (MCH-2): 16 nM
- MCH-2 k3/Ki (MCH-2): 335,000 moles^−1 seconds^−1

Compound: C[C@H](NC(=O)C(=O)Nc1ccccc1C(C)(C)C)C(=O)N[C@@H](CC(=O)O)C(=O)COC(=O)c1c(Cl)cccc1Cl [Example 37]
- CPP32 k3/Ki (CPP32): 142,000 moles^−1 seconds^−1
- Ki (CPP32): 78 nM
- Ki (MCH-5): 83 nM
- MCH-5 k3/Ki (MCH-5): 39,100 moles^−1 seconds^−1
- Ki (mICE): 465 nM
- mICE k3/Ki (mICE): 43,300 moles^−1 seconds^−1
- Ki (MCH-2): 13 nM
- MCH-2 k3/Ki (MCH-2): 191,000 moles^−1 seconds^−1

Compound: C[C@H](NC(=O)C(=O)Nc1cccc2c1CCCC2)C(=O)N[C@@H](CC(=O)O)C(=O)COC(=O)c1c(Cl)cccc1Cl [Example 49]
- CPP32 k3/Ki (CPP32): 260,000 moles^−1 seconds^−1
- Ki (CPP32): 43 nM
- Ki (MCH-5): 4 nM
- MCH-5 k3/Ki (MCH-5): 1,920,000 moles^−1 seconds^−1
- Ki (mICE): 1.4 nM
- mICE k3/Ki (mICE): 17,600,000 moles^−1 seconds^−1
- Ki (MCH-2): 10 nM
- MCH-2 k3/Ki (MCH-2): 264,000 moles^−1 seconds^−1

Compound: C[C@H](NC(=O)C(=O)Nc1ccccc1-c1ccccc1)C(=O)N[C@@H](CC(=O)O)C(=O)COC(=O)c1c(Cl)cccc1Cl [Example 29]
- CPP32 k3/Ki (CPP32): 388,000 moles^−1 seconds^−1
- Ki (CPP32): 15 nM
- Ki (MCH-5): 17 nM
- MCH-5 k3/Ki (MCH-5): 125,000 moles^−1 seconds^−1
- Ki (mICE): 38 nM
- mICE k3/Ki (mICE): 259,000 moles^−1 seconds^−1
- Ki (MCH-2): 9 nM
- MCH-2 k3/Ki (MCH-2): 219,000 moles^−1 seconds^−1

Compound: CC(C)[C@H](NC(=O)C(=O)Nc1ccccc1C(C)(C)C)C(=O)N[C@@H](CC(=O)O)C(=O)COc1c(F)c(F)cc(F)c1F [Example 93]
- CPP32 k3/Ki (CPP32): 27,700 moles^−1 seconds^−1
- Ki (CPP32): 353 nM
- Ki (MCH-5): 3 nM
- MCH-5 k3/Ki (MCH-5): 1,165,000 moles^−1 seconds^−1
- Ki (mICE): 6 nM
- mICE k3/Ki (mICE): 2,052,000 moles^−1 seconds^−1
- Ki (MCH-2): 41 nM
- MCH-2 k3/Ki (MCH-2): 112,000 moles^−1 seconds^−1

Compound: CC(C)[C@H](NC(=O)C(=O)Nc1ccccc1-c1ccccc1)C(=O)N[C@@H](CC(=O)O)C(=O)COc1c(F)c(F)cc(F)c1F [Example 83]
- CPP32 k3/Ki (CPP32): 25,400 moles^−1 seconds^−1
- Ki (CPP32): 251 nM
- Ki (MCH-5): 30 nM
- MCH-5 k3/Ki (MCH-5): 65,300 moles^−1 seconds^−1
- Ki (mICE): 135 nM
- mICE k3/Ki (mICE): 127,000 moles^−1 seconds^−1
- Ki (MCH-2): 85 nM
- MCH-2 k3/Ki (MCH-2): 31,700 moles^−1 seconds^−1

- Ki (CPP32): 46 nM
- Ki (MCH-5): 3.7 nM
- Ki (mICE): 5.7 nM
- Ki (MCH-2): 16 nM
Compound: CC(C)[C@H](NC(=O)C(=O)Nc1cccc2ccccc12)C(=O)N[C@@H](CC(=O)O)C(=O)COc1c(F)c(F)cc(F)c1F [Example 7]

Compound: CC(C)[C@H](NC(=O)C(=O)Nc1c(F)c(F)nc(F)c1F)C(=O)N[C@@H](CC(=O)O)C(=O)COc1c(F)c(F)cc(F)c1F [Example 102]
- CPP32 k3/Ki (CPP32): 153,000 moles^−1 seconds^−1
- Ki (CPP32): 127 nM
- Ki (MCH-5): 10 nM
- MCH-5 k3/Ki (MCH-5): 389,000 moles^−1 seconds^−1
- Ki (mICE): 14 nM
- mICE k3/Ki (mICE): 1,220,000 moles^−1 seconds^−1
- Ki (MCH-2): 22 nM
- MCH-2 k3/Ki (MCH-2): 170,000 moles^−1 seconds^−1

Compound: C[C@H](NC(=O)C(=O)NCc1cccc2ccccc12)C(=O)N[C@@H](CC(=O)O)C(=O)COP(=O)(c1ccccc1)c1ccccc1 [Example 35]
- CPP32 k3/Ki (CPP32): 245,000 moles^−1 seconds^−1
- Ki (CPP32): 22 nM
- Ki (MCH-5): 23 nM
- MCH-5 k3/Ki (MCH-5): 82,700 moles^−1 seconds^−1
- Ki (mICE): 35 nM
- mICE k3/Ki (mICE): 191,000 moles^−1 seconds^−1
- Ki (MCH-2): 11 nM
- MCH-2 k3/Ki (MCH-2): 186,000 moles^−1 seconds^−1

Compound: C[C@H](NC(=O)C(=O)Nc1ccccc1F)C(=O)N[C@@H](CC(=O)O)C(=O)COc1c(F)c(F)cc(F)c1F [Example 66]
- CPP32 k3/Ki (CPP32): 478,000 moles^−1 seconds^−1
- Ki (CPP32): 28 nM
- Ki (MCH-5): 13 nM
- MCH-5 k3/Ki (MCH-5): 170,000 moles^−1 seconds^−1
- Ki (mICE): 25 nM
- mICE k3/Ki (mICE): 339,000 moles^−1 seconds^−1
- Ki (MCH-2): 19 nM
- MCH-2 k3/Ki (MCH-2): 212,000 moles^−1 seconds^−1
